This is an account of results in US10273243B2, “4-phenylpiperidines, their preparation and use” (The Trustees of Columbia University in the City of New York, priority 2013, dated 2019).

Where a name gives a salt, the structure may show the parent alone.

One may read the melting point as the temperature, or range, at which the solid turns liquid. `O=C(c1n[nH]c2c1CCNC2)N1CCC(c2ccccc2C(F)(F)F)CC1` (as salt: hydrochloride) [Example 16, (4,5,6,7-Tetrahydro-1H-pyrazolo[3,4-c]pyridin-3-yl)(4-(2-(trifluoromethyl)phenyl)piperidin-1-yl)methanone Hydrochloride] came in with a melting point of 272 to 278 °C.
To `Cn1nc(C(=O)N2CCC(c3ccccc3C(F)(F)F)CC2)c2c1CCOC2` [Example 1, (1-Methyl-1,4,6,7-tetrahydropyrano[4,3-c]pyrazol-3-yl)(4-(2-(trifluoromethyl)phenyl)piperidin-1-yl)methanone] belongs 44 to 46 °C; to `Cn1nc(C(=O)N2CCC(c3ccccc3C(F)(F)F)CC2)c2c1CC(C)(C)OC2` [Example 2, (4-(2-(Trifluoromethyl)phenyl)piperidin-1-yl)(1,6,6-trimethyl-1,4,6,7-tetrahydropyrano[4,3-c]pyrazol-3-yl)methanone], 58 to 64 °C.
As for `Cn1nc(C(=O)N2CCC(c3ccccc3C(F)(F)F)CC2)c2c1CCS(=O)(=O)C2` [Example 3, (1-methyl-5,5-dioxido-1,4,6,7-tetrahydrothiopyrano[4,3-c]pyrazol-3-yl)(4-(2-(trifluoromethyl)phenyl)piperidin-1-yl)methanone], the melting point was 232 to 234 °C.
In the case of `CC(=O)N1Cc2[nH]nc(C(=O)N3CCC(c4ccccc4C(F)(F)F)CC3)c2C1` [Example 7, 1-(3-(4-(2-(Trifluoromethyl)phenyl)piperidine-1-carbonyl)pyrrolo[3,4-c]pyrazol-5(1H,4H,6H)-yl)ethanone] it was 186 to 192 °C.
To `CN1CCCc2[nH]nc(C(=O)N3CCC(c4ccccc4C(F)(F)F)CC3)c2C1` [Example 10, (5-Methyl-1,4,5,6,7,8-hexahydropyrazolo[4,3-c]azepin-3-yl)(4-(2-(trifluoromethyl)phenyl)piperidin-1-yl)methanone] belongs 75 to 85 °C.
`CC(=O)N1CCc2c(C(=O)N3CCC(c4ccccc4C(F)(F)F)CC3)n[nH]c2C1` [Example 17, 1-(3-(4-(2-(Trifluoromethyl)phenyl)piperidine-1-carbonyl)-4,5-dihydro-1H-pyrazolo[3,4-c]pyridin-6(7H)-yl)ethanone]: the melting point lay within 202 to 209 °C.
In the case of `CS(=O)(=O)N1CCc2c(C(=O)N3CCC(c4ccccc4C(F)(F)F)CC3)n[nH]c2C1` [Example 18, (6-(Methylsulfonyl)-4,5,6,7-tetrahydro-1H-pyrazolo[3,4-c]pyridin-3-yl)(4-(2-(trifluoromethyl)phenyl)piperidin-1-yl)methanone] it was 242 to 245 °C.
Consider `CN1CCc2c(C(=O)N3CCC(c4ccccc4C(F)(F)F)CC3)n[nH]c2C1` [Example 19, (6-Methyl-4,5,6,7-tetrahydro-1H-pyrazolo[3,4-c]pyridin-3-yl)(4-(2-(trifluoromethyl)phenyl)piperidin-1-yl)methanone], for which the melting point fell in the range of 115 to 120 °C.
In the case of `Cn1nc(C(=O)N2CCC(c3ccccc3C(F)(F)F)CC2)c2cc(F)ccc21` [Example 21, (5-Fluoro-1-methyl-1H-indazol-3-yl)(4-(2-(trifluoromethyl)phenyl)piperidin-1-yl)methanone] it was 161 to 163 °C; in that of `O=C(c1n[nH]c2c1CNCC2)N1CCC(c2ccccc2C(F)(F)F)CC1` [Example 26, (4,5,6,7-Tetrahydro-1H-pyrazolo[4,3-c]pyridin-3-yl)(4-(2-(trifluoromethyl)phenyl)piperidin-1-yl)methanone], 270 to 272 °C; in that of `CC(=O)N1CCc2[nH]nc(C(=O)N3CCC(c4ccccc4C(F)(F)F)CC3)c2C1` [Example 27, 1-(3-(4-(2-(Trifluoromethyl)phenyl)piperidine-1-carbonyl)-6,7-dihydro-1H-pyrazolo[4,3-c]pyridin-5(4H)-yl)ethanone], 208 to 211 °C.
To `CS(=O)(=O)N1CCc2[nH]nc(C(=O)N3CCC(c4ccccc4C(F)(F)F)CC3)c2C1` [Example 28, (5-(Methylsulfonyl)-4,5,6,7-tetrahydro-1H-pyrazolo[4,3-c]pyridin-3-yl)(4-(2-(trifluoromethyl)phenyl)piperidin-1-yl)methanone] belongs 240 to 243 °C; to `O=C(c1n[nH]c2ncccc12)N1CCC(c2ccccc2C(F)(F)F)CC1` [Example 30, (1H-pyrazolo[3,4-b]pyridin-3-yl)(4-(2-(trifluoromethyl)phenyl)piperidin-1-yl)methanone], 202 to 205 °C.
To `O=C(c1n[nH]c2cc(F)c(F)cc12)N1CCC(c2ccccc2C(F)(F)F)CC1` [Example 34, (5,6-Difluoro-1H-indazol-3-yl)(4-(2-(trifluoromethyl)phenyl)piperidin-1-yl)methanone] belongs 233 to 235 °C; to `N#Cc1ccc2[nH]nc(C(=O)N3CCC(c4ccccc4C(F)(F)F)CC3)c2c1` [Example 36, 3-(4-(2-(Trifluoromethyl)phenyl)piperidine-1-carbonyl)-1H-indazole-5-carbonitrile], 249 to 252 °C.
On to `CCS(=O)(=O)N1CCc2[nH]nc(C(=O)N3CCC(c4ccccc4C(F)(F)F)CC3)c2C1` [Example 37, (5-(Ethylsulfonyl)-4,5,6,7-tetrahydro-1H-pyrazolo[4,3-c]pyridin-3-yl)(4-(2-(trifluoromethyl)phenyl)piperidin-1-yl)methanone], for which the melting point was 187 to 189 °C.
In the case of `CC(C)CS(=O)(=O)N1CCc2[nH]nc(C(=O)N3CCC(c4ccccc4C(F)(F)F)CC3)c2C1` [Example 38, (5-(Isobutylsulfonyl)-4,5,6,7-tetrahydro-1H-pyrazolo[4,3-c]pyridin-3-yl)(4-(2-(trifluoromethyl)phenyl)piperidin-1-yl)methanone] it was 178 to 180 °C; in that of `CC(C)S(=O)(=O)N1CCc2[nH]nc(C(=O)N3CCC(c4ccccc4C(F)(F)F)CC3)c2C1` [Example 39, (5-(Isopropylsulfonyl)-4,5,6,7-tetrahydro-1H-pyrazolo[4,3-c]pyridin-3-yl)(4-(2-(trifluoromethyl)phenyl)piperidin-1-yl)methanone], 199 to 201 °C.
In the case of `CC(C)(C)C(=O)N1CCc2[nH]nc(C(=O)N3CCC(c4ccccc4C(F)(F)F)CC3)c2C1` [Example 40, 2,2-Dimethyl-1-(3-(4-(2-(trifluoromethyl)phenyl)piperidine-1-carbonyl)-6,7-dihydro-1H-pyrazolo[4,3-c]pyridin-5(4H)-yl)propan-1-one] it was 126 to 128 °C; in that of `CC(C)C(=O)N1CCc2[nH]nc(C(=O)N3CCC(c4ccccc4C(F)(F)F)CC3)c2C1` [Example 41, 2-Methyl-1-(3-(4-(2-(trifluoromethyl)phenyl)piperidine-1-carbonyl)-6,7-dihydro-1H-pyrazolo[4,3-c]pyridin-5(4H)-yl)propan-1-one], 112 to 114 °C; in that of `CC(C)CC(=O)N1CCc2[nH]nc(C(=O)N3CCC(c4ccccc4C(F)(F)F)CC3)c2C1` [Example 42, 3-Methyl-1-(3-(4-(2-(trifluoromethyl)phenyl)piperidine-1-carbonyl)-6,7-dihydro-1H-pyrazolo[4,3-c]pyridin-5(4H)-yl)butan-1-one], 107 to 109 °C.
To `CCN1CCc2[nH]nc(C(=O)N3CCC(c4ccccc4C(F)(F)F)CC3)c2C1` [Example 43, (5-Ethyl-4,5,6,7-tetrahydro-1H-pyrazolo[4,3-c]pyridin-3-yl)(4-(2-(trifluoromethyl)phenyl)piperidin-1-yl)methanone] belongs 159 to 162 °C; to `CCC(=O)N1CCc2[nH]nc(C(=O)N3CCC(c4ccccc4C(F)(F)F)CC3)c2C1` [Example 44, 1-(3-(4-(2-(Trifluoromethyl)phenyl)piperidine-1-carbonyl)-6,7-dihydro-1H-pyrazolo[4,3-c]pyridin-5(4H)-yl)propan-1-one], 153 to 155 °C.
Consider `CC(C)CN1CCc2[nH]nc(C(=O)N3CCC(c4ccccc4C(F)(F)F)CC3)c2C1` [Example 45, (5-Isobutyl-4,5,6,7-tetrahydro-1H-pyrazolo[4,3-c]pyridin-3-yl)(4-(2-(trifluoromethyl)phenyl)piperidin-1-yl)methanone], for which the melting point is 105 to 107 °C.
In the case of `O=C(c1n[nH]c2c1CN(C1COC1)CC2)N1CCC(c2ccccc2C(F)(F)F)CC1` [Example 46, (5-(Oxetan-3-yl)-4,5,6,7-tetrahydro-1H-pyrazolo[4,3-c]pyridin-3-yl)(4-(2-(trifluoromethyl)phenyl)piperidin-1-yl)methanone] it was 107 to 110 °C; in that of `O=C(CC(F)(F)F)N1CCc2[nH]nc(C(=O)N3CCC(c4ccccc4C(F)(F)F)CC3)c2C1` [Example 47, 3,3,3-Trifluoro-1-(3-(4-(2-(trifluoromethyl)phenyl)piperidine-1-carbonyl)-6,7-dihydro-1H-pyrazolo[4,3-c]pyridin-5(4H)-yl)propan-1-one], 127 to 130 °C; in that of `COCC(=O)N1CCc2[nH]nc(C(=O)N3CCC(c4ccccc4C(F)(F)F)CC3)c2C1` [Example 48, 2-Methoxy-1-(3-(4-(2-(trifluoromethyl)phenyl)piperidine-1-carbonyl)-6,7-dihydro-1H-pyrazolo[4,3-c]pyridin-5(4H)-yl)ethanone], 192 to 194 °C.
`CCC(=O)N1CCc2c(C(=O)N3CCC(c4ccccc4C(F)(F)F)CC3)n[nH]c2C1` [Example 49, 1-(3-(4-(2-(Trifluoromethyl)phenyl)piperidine-1-carbonyl)-4,5-dihydro-1H-pyrazolo[3,4-c]pyridin-6(7H)-yl)propan-1-one]: the melting point fell in the range of 162 to 164 °C.
For the compound `CC(C)S(=O)(=O)N1CCc2c(C(=O)N3CCC(c4ccccc4C(F)(F)F)CC3)n[nH]c2C1` [Example 51, (6-(Isopropylsulfonyl)-4,5,6,7-tetrahydro-1H-pyrazolo[3,4-c]pyridin-3-yl)(4-(2-(trifluoromethyl)phenyl)piperidin-1-yl)methanone], the melting point was in the range of 220 to 222 °C.
To `CC(C)C(=O)N1CCc2c(C(=O)N3CCC(c4ccccc4C(F)(F)F)CC3)n[nH]c2C1` [Example 52, 2-Methyl-1-(3-(4-(2-(trifluoromethyl)phenyl)piperidine-1-carbonyl)-4,5-dihydro-1H-pyrazolo[3,4-c]pyridin-6(7H)-yl)propan-1-one] belongs 200 to 203 °C.
